# In patent publication US20130197085A1, “AGENT AND METHOD FOR STABILIZING MEMBRANE PROTEIN” (priority 2007, published 2013):
# Target: T1, BSEP expressing on canalicular membrane (Rattus norvegicus, UniProt O70127)
# T1 construct: from tissue; host or cells: liver of male SD rats: in vivo for A27, canalicular membrane vesicles for A28 and A29
# T1 sequence (O70127 1-1321): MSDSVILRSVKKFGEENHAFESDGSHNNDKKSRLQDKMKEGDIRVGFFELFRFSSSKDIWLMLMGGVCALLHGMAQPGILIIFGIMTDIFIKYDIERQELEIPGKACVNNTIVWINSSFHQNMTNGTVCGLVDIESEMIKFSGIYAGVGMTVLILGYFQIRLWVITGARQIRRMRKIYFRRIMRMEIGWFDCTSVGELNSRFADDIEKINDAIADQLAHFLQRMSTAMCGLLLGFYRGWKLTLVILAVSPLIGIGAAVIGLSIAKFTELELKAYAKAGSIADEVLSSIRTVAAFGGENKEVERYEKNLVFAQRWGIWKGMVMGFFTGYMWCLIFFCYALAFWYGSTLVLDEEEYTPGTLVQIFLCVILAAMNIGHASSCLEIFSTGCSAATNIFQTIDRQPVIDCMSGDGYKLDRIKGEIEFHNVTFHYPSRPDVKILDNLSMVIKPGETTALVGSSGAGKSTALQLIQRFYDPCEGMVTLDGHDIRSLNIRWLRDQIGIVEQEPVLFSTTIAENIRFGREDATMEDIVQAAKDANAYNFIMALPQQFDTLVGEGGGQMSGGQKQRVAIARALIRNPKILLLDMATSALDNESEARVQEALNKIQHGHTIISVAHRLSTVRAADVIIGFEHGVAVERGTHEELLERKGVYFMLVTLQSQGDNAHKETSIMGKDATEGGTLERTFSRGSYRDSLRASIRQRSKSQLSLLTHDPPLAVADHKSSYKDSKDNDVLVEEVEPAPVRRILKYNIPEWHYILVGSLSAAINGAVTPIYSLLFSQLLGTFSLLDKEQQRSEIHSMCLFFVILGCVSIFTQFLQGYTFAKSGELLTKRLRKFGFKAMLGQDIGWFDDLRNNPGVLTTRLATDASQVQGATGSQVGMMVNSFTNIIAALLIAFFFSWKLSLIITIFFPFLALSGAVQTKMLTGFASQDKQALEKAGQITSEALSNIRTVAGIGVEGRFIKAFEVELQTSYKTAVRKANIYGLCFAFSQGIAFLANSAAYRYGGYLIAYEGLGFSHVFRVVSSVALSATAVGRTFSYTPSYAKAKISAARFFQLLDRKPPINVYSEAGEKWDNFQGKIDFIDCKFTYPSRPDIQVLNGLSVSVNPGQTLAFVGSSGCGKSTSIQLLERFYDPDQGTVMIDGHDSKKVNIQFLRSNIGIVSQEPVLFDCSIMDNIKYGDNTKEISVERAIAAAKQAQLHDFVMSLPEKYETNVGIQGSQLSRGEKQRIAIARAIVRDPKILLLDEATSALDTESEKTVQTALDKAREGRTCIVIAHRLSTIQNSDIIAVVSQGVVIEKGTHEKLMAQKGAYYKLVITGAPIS
# Test: [^3H] TC injection experiment in vivo with pharmacokinetic analysis
# Set-up: species or system SD rat
# Settings: for CLbile, liver / CLbile, plasma / CLtotal / Css, liver / Css, plasma: [^3H] TC, mean ± standard error
# Experimental: Male SD rats (6- to 7-week-old) were purchased from Nippon SLC. All the animals were bred under day-night reversal conditions. They were treated under standard conditions based on the protection of animals. Feed and water were given without any limitation.
# It is to be noted that the present study was carried out in accordance with the guidelines determined by the animal experiment committee in the university. 4PBA or a vehicle was given to each SD rat via a tube, for a certain period of time (5, 10, and 15 days), at various doses ([…]). After completion of the 4PBA treatment, a [^3H] TC injection experiment was carried out in vivo (see Hirano et al., Mol Pharmacol 68: 800-807. 2005). [^3H] TC dissolved in a normal saline was injected into each rat, via a cannula inserted into the femoral vein thereof, at a rate of 70 ng/min/kg for 90 minutes. Blood and bile were collected for a certain period of time. Radioactivity in plasma, bile, and liver was measured.
# The total clearance of plasma (CLtotal) the clearance of bile standardized with circulating plasma (CLbile, plasma), and the clearance of bile standardized with the concentration in the liver (CLbile, liver) were calculated using the following formulae:
# CLbile, plasma=Vss, bile/Css, plasma; and
# CLbile, liver=Vss, bile/Css, liver
# (wherein “I,” “Css, plasma,” Vss, bile” and “Css, and liver” represent, respectively, an injection rate (ng/min/kg), a plasma concentration in a steady state ([…]), a bile elimination rate in a steady state (ng/min/kg), and a mean liver concentration (ng/ml)). The plasma concentration in a steady state (Css, plasma) indicates the mean value of plasma [^3H] TC concentrations at time points of 15, 30, 60, and 90 minutes. The bile elimination rate (Vss, bile) indicates the mean value of the bile elimination rates of [^3H] TC at time points of 10-15 minutes, 25-30 minutes, 55-60 minutes, and 85-90 minutes. The mean liver concentration (Css, liver) indicates the mean value of liver [^3H] TC concentrations at the termination of the in vivo experiment.
# [1] = 4PBA (0.2 g/kg/day), N = 3, SD rats
# [2] = 4PBA (0.6 g/kg/day), N = 9, SD rats
# [3] = 4PBA (2.4 g/kg/day), N = 3, SD rats
smiles,measurement,setting,value
"O=C(O)CCCc1ccccc1 [4PBA, 4-phenylbutyric acid]","CLbile, liver with respect to [^3H] TC, greater than vehicle-treated rats",0.6 k/kg/day for 10 days,2 times
same,"CLbile, plasma with respect to [^3H] TC, 4PBA-treated vs vehicle-treated SD rats",0.6 k/kg/day for 10 days,no significant difference
same,"CLtotal with respect to [^3H] TC, 4PBA-treated vs vehicle-treated SD rats",0.6 k/kg/day for 10 days,no significant difference
same,"Css, liver of [^3H] TC as fraction of that in vehicle-treated SD rats",0.6 k/kg/day for 10 days,½
same,"Css, plasma of [^3H] TC, 4PBA-treated vs vehicle-treated SD rats",0.6 k/kg/day for 10 days,no significant difference
same,"Vss, bile of [^3H] TC, 4PBA-treated vs vehicle-treated SD rats",0.6 k/kg/day for 10 days,no significant difference
same,"CLbile, liver",[1],19.0 ± 3.9 mL/min/kg
same,"CLbile, plasma",[1],26.3 ± 2.0 mL/min/kg
same,CLtotal,[1],26.6 ± 3.8 mL/min/kg
same,"Css, liver",[1],3.8 ± 0.7 ng/mL
same,"Css, plasma",[1],2.6 ± 0.2 ng/mL
same,"CLbile, liver",[2],29.3 ± 6.1 mL/min/kg
same,"CLbile, plasma",[2],32.3 ± 2.9 mL/min/kg
same,CLtotal,[2],30.7 ± 3.7 mL/min/kg
same,"Css, liver",[2],2.6 ± 0.5 ng/mL
same,"Css, plasma",[2],2.0 ± 0.2 ng/mL
same,"CLbile, liver",[3],19.2 ± 3.2 mL/min/kg
same,"CLbile, plasma",[3],23.9 ± 4.7 mL/min/kg
same,CLtotal,[3],29.6 ± 3.5 mL/min/kg
same,"Css, liver",[3],5.9 ± 1.8 ng/mL
same,"Css, plasma",[3],3.3 ± 0.7 ng/mL
same,"CLbile, liver","4PBA (5 days), N = 6, SD rats",21.7 ± 3.0 mL/min/kg
same,"CLbile, plasma","4PBA (5 days), N = 6, SD rats",32.3 ± 8.5 mL/min/kg
same,CLtotal,"4PBA (5 days), N = 6, SD rats",26.6 ± 3.8 mL/min/kg
same,"Css, liver","4PBA (5 days), N = 6, SD rats",3.1 ± 0.5 ng/mL
same,"Css, plasma","4PBA (5 days), N = 6, SD rats",2.3 ± 0.3 ng/mL
same,"CLbile, liver","4PBA (10 days), N = 9, SD rats",29.3 ± 6.1 mL/min/kg
same,"CLbile, plasma","4PBA (10 days), N = 9, SD rats",32.3 ± 2.9 mL/min/kg
same,CLtotal,"4PBA (10 days), N = 9, SD rats",30.7 ± 3.7 mL/min/kg
same,"Css, liver","4PBA (10 days), N = 9, SD rats",2.6 ± 0.5 ng/mL
same,"Css, plasma","4PBA (10 days), N = 9, SD rats",2.0 ± 0.2 ng/mL
same,"CLbile, liver","4PBA (15 days), N = 3, SD rats",29.9 ± 1.5 mL/min/kg
same,"CLbile, plasma","4PBA (15 days), N = 3, SD rats",33.2 ± 2.0 mL/min/kg
same,CLtotal,"4PBA (15 days), N = 3, SD rats",27.5 ± 2.7 mL/min/kg
same,"Css, liver","4PBA (15 days), N = 3, SD rats",2.3 ± 0.2 ng/mL
same,"Css, plasma","4PBA (15 days), N = 3, SD rats",2.1 ± 0.2 ng/mL
same,side effects,"SD rats, under all conditions (various times and doses)",No clear side effects were recognized
